According to patent publication US20050288347A1, “Certain triazole-based compounds, compositions, and uses thereof” (priority 2004, published 2005):
“Also recorded” adds a separate entry of the source.

molecular target: protein kinase; experiment: HTS ATP-utilizing enzyme assay, off-chip mobility-shift format (Caliper HTS 250); format: biochemical, human; settings: kinase(s) for which the compound exhibits protein kinase inhibitory activity; test compound 10 μM; active = greater than three-sigma from the mean activity of inactive compounds
How it was run: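 Kinase reactions ran 2.5 h at 20 to 22 °C with test compound at 10 μM, in a HEPES pH 7.5 master buffer containing Triton X-100 and BSA. Peptide substrate and phosphorylated product separated by mobility shift; inhibition normalized to DMSO (0%) and EDTA (100%) controls, with three-sigma thresholds for hits.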

Row | SMILES | Kinase
1 | Fc1ccc(NCc2nnc(S)n2Cc2ccccc2)cc1 [4-benzyl-5-((4-fluorophenylamino)methyl)-4H-1,2,4-triazole-3-thiol] | CHEK2
2 | Cc1cccc(-c2nnc(S)n2Cc2ccccc2)c1 [4-benzyl-5-m-tolyl-4H-1,2,4-triazole-3-thiol] | GSK3-α
3 | Cc1cccc(OCc2nnc(S)n2C2CCCCC2)c1 [4-cyclohexyl-5-(m-tolyloxymethyl)-4H-1,2,4-triazole-3-thiol] | GSK3-α; also recorded: CHEK1; also recorded: AURORA-A
4 | CCn1c(S)nnc1COc1ccccc1OC [4-ethyl-5-((2-methoxyphenoxy)methyl)-4H-1,2,4-triazole-3-thiol] | GSK3-α; also recorded: GSK3-β; also recorded: AURORA-A
5 | CCn1c(S)nnc1CNc1cccc(C(F)(F)F)c1 [4-ethyl-5-((3-(trifluoromethyl)phenylamino)methyl)-4H-1,2,4-triazole-3-thiol] | GSK3-α
6 | CCn1c(S)nnc1COc1ccc(OC)cc1 [4-ethyl-5-((4-methoxyphenoxy)methyl)-4H-1,2,4-triazole-3-thiol] | GSK3-β; also recorded: GSK3-α; also recorded: CDK2-cyclinE
7 | Cn1c(S)nnc1COc1cccc2ccccc12 [4-methyl-5-((naphthalen-1-yloxy)methyl)-4H-1,2,4-triazole-3-thiol] | GSK3-β; also recorded: GSK3-α
8 | Cn1c(S)nnc1COc1ccc2ccccc2c1 [4-methyl-5-((naphthalen-2-yloxy)methyl)-4H-1,2,4-triazole-3-thiol] | GSK3-α
9 | CCCOc1ccc(CCc2nnc(S)n2-c2ccccc2)cc1 [4-phenyl-5-(4-propoxyphenethyl)-4H-1,2,4-triazole-3-thiol] | GSK3-β; also recorded: GSK3-α
10 | Sc1nnc(-c2ccncc2)n1-c1ccccc1 [4-phenyl-5-(pyridin-4-yl)-4H-1,2,4-triazole-3-thiol] | LCK
11 | CCn1c(S)nnc1CCc1nc2ccccc2[nH]1 [5-(2-(1H-benzo[d]imidazol-2-yl)ethyl)-4-ethyl-4H-1,2,4-triazole-3-thiol] | GSK3-β; also recorded: GSK3-α
12 | Cn1c(S)nnc1CCc1nc2ccccc2[nH]1 [5-(2-(1H-benzo[d]imidazol-2-yl)ethyl)-4-methyl-4H-1,2,4-triazole-3-thiol] | GSK3-α; also recorded: GSK3-β
13 | Cc1ccc(-n2c(S)nnc2CCc2nc3ccccc3[nH]2)cc1 [5-(2-(1H-benzo[d]imidazol-2-yl)ethyl)-4-p-tolyl-4H-1,2,4-triazole-3-thiol] | GSK3-α; also recorded: GSK3-β
14 | C=C(C)Cn1c(S)nnc1-c1ccccc1Br [5-(2-bromophenyl)-4-(2-methylallyl)-4H-1,2,4-triazole-3-thiol] | PDGFRR-α
15 | C=C(C)Cn1c(S)nnc1-c1ccccc1OC [5-(2-methoxyphenyl)-4-(2-methylallyl)-4H-1,2,4-triazole-3-thiol] | CDK2-cyclinE
16 | COc1ccccc1-c1nnc(N)[nH]1 [5-(2-methoxyphenyl)-4H-1,2,4-triazol-3-amine] | AURORA-A; also recorded: CDK2/CyclinE; also recorded: CHEK2
17 | Sc1nnc(CNc2cccc(Cl)c2)n1CCc1ccccc1 [5-((3-chlorophenylamino)methyl)-4-phenethyl-4H-1,2,4-triazole-3-thiol] | GSK3-α; also recorded: GSK3-β; also recorded: AURORA-A
18 | Cc1ccc(-n2c(S)nnc2CNc2ccc(F)cc2)cc1 [5-((4-fluorophenylamino)methyl)-4-p-tolyl-4H-1,2,4-triazole-3-thiol] | AURORA-A; also recorded: GSK3-α; also recorded: GSK3-β
19 | COc1ccc(-n2c(S)nnc2CNc2ccc(C)cc2)cc1 [5-((p-toluidino)methyl)-4-(4-methoxyphenyl)-4H-1,2,4-triazole-3-thiol] | AURORA-A; also recorded: PDGFRR-α; also recorded: GSK3-β

Now from value to compound:

Row | Kinase | SMILES
20 | CDK2-cyclinA and CDK2-cyclinE and CDK5 | COc1ccc(-n2c(S)nnc2-c2ccccc2OC)cc1 [5-(2-methoxyphenyl)-4-(4-methoxyphenyl)-4H-1,2,4-triazole-3-thiol]
21 | CDK2-cyclinE | COc1ccccc1-c1nnc(S)n1C [5-(2-methoxyphenyl)-4-methyl-4H-1,2,4-triazole-3-thiol]
22 | CDK2-cyclinA and CDK2-cyclinE and CDK5 | COc1ccccc1-c1nnc(S)n1-c1ccc(C)cc1 [5-(2-methoxyphenyl)-4-p-tolyl-4H-1,2,4-triazole-3-thiol]
23 | MSK2 | COc1ccc(-c2nnc(S)n2Cc2ccco2)cc1OC [5-(3,4-dimethoxyphenyl)-4-(furan-2-ylmethyl)-4H-1,2,4-triazole-3-thiol]
24 | GSK3-β; also recorded: GSK3-α | COc1ccc(-c2nnc(S)n2-c2ccc(C)cc2)cc1 [5-(4-methoxyphenyl)-4-p-tolyl-4H-1,2,4-triazole-3-thiol]
25 | GSK3-α | COc1ccccc1OCc1nnc(S)n1C [5-((2-methoxyphenoxy)methyl)-4-methyl-4H-1,2,4-triazole-3-thiol]
26 | GSK3-α | CN(C)c1cccc(OCc2nnc(S)n2-c2ccccc2)c1 [5-((3-(dimethylamino)phenoxy)methyl)-4-phenyl-4H-1,2,4-triazole-3-thiol]
27 | GSK3-β; also recorded: GSK3-α | CCn1c(S)nnc1CNc1cccc(Cl)c1 [5-((3-chlorophenylamino)methyl)-4-ethyl-4H-1,2,4-triazole-3-thiol]
28 | GSK3-β; also recorded: GSK3-α | Cc1ccc(-n2c(S)nnc2CNc2cccc(Cl)c2)cc1 [5-((3-chlorophenylamino)methyl)-4-p-tolyl-4H-1,2,4-triazole-3-thiol]
29 | GSK3-β; also recorded: GSK3-α | Sc1nnc(CNc2cccc(Cl)c2)n1-c1ccccc1 [5-((3-chlorophenylamino)methyl)-4-phenyl-4H-1,2,4-triazole-3-thiol]
30 | GSK3-α | CCn1c(S)nnc1CSc1nc(C)cc(C)n1 [5-((4,6-dimethylpyrimidin-2-ylthio)methyl)-4-ethyl-4H-1,2,4-triazole-3-thiol]
31 | CDK2-cyclinE | Cn1c(S)nnc1COc1ccc(Br)cc1 [5-((4-bromophenoxy)methyl)-4-methyl-4H-1,2,4-triazole-3-thiol]
32 | GSK3-α | CCn1c(S)nnc1COc1ccc(Cl)c(C)c1 [5-((4-chloro-3-methylphenoxy)methyl)-4-ethyl-4H-1,2,4-triazole-3-thiol]
33 | GSK3-α | COCCn1c(S)nnc1COc1ccc(Cl)cc1 [5-((4-chlorophenoxy)methyl)-4-(2-methoxyethyl)-4H-1,2,4-triazole-3-thiol]
34 | AURORA-A | CCOc1ccc(NCc2nnc(S)n2-c2ccc(C)cc2)cc1 [5-((4-ethoxyphenylamino)methyl)-4-p-tolyl-4H-1,2,4-triazole-3-thiol]
35 | AURORA-A | Fc1ccc(NCc2nnc(S)n2-c2ccccc2)cc1 [5-((4-fluorophenylamino)methyl)-4-phenyl-4H-1,2,4-triazole-3-thiol]
36 | AURORA-A; also recorded: GSK3-α | COc1ccc(OCc2nnc(S)n2-c2ccc(C)cc2)cc1 [5-((4-methoxyphenoxy)methyl)-4-p-tolyl-4H-1,2,4-triazole-3-thiol]
37 | AURORA-A and PDGFRR-α and MSK2 | COc1ccc(NCc2nnc(S)n2-c2ccc(C)cc2)cc1 [5-((4-methoxyphenylamino)methyl)-4-p-tolyl-4H-1,2,4-triazole-3-thiol]
38 | FLT-3; also recorded: PDGFRR-α | O=[N+]([O-])c1ccc(OCc2nnc(S)n2-c2ccccc2)cc1 [5-((4-nitrophenoxy)methyl)-4-phenyl-4H-1,2,4-triazole-3-thiol]
39 | GSK3-α | Cc1cccc(NCc2nnc(S)n2-c2ccccc2)c1 [5-((m-toluidino)methyl)-4-phenyl-4H-1,2,4-triazole-3-thiol]
40 | AURORA-A | Sc1nnc(COc2ccc3ccccc3c2)n1-c1ccccc1 [5-((naphthalen-2-yloxy)methyl)-4-phenyl-4H-1,2,4-triazole-3-thiol]
41 | CDK2-cyclinA; also recorded: GSK3-α | Cc1ccc(NCc2nnc(S)n2-c2cccc(Cl)c2)cc1 [5-((p-toluidino)methyl)-4-(3-chlorophenyl)-4H-1,2,4-triazole-3-thiol]
42 | PAK2 and GSK3-α | Cc1ccc(NCc2nnc(S)n2-c2ccc(Cl)cc2)cc1 [5-((p-toluidino)methyl)-4-(4-chlorophenyl)-4H-1,2,4-triazole-3-thiol]
43 | AKT1 | Cn1c(S)nnc1C1CCCCC1 [5-cyclohexyl-4-methyl-4H-1,2,4-triazole-3-thiol]
44 | MAPKAPK-2 | Cc1nnc(S)n1CC1CCCO1 (centres unmarked) [5-methyl-4-((tetrahydrofuran-2-yl)methyl)-4H-1,2,4-triazole-3-thiol]
45 | FLT-3; also recorded: PDGFRR-α | O=[N+]([O-])c1ccc(Sc2nnc(COc3ccccc3)n2-c2ccccc2)c2cccnc12 [8-nitro-5-(5-(phenoxymethyl)-4-phenyl-4H-1,2,4-triazol-3-ylthio)quinoline]

same assay, conditions: test compound 10 μM; active = activity greater than three-sigma from the mean of the predominately inactive population for that enzyme

Row | SMILES | protein kinase against which the compound exhibits inhibitory activity (Table 3)
46 | CCn1c(COc2ccc(C)cc2)nnc1SCc1ccc(C)cc1 [4-ethyl-3-(4-methylbenzylthio)-5-(p-tolyloxymethyl)-4H-1,2,4-triazole] | AURORA-A
47 | CCn1c(COc2cccc3ccccc23)nnc1SCC(C)C [4-ethyl-3-(isobutylthio)-5-((naphthalen-1-yloxy)methyl)-4H-1,2,4-triazole] | c-TAK1 and CDK1
48 | Cc1ccc(CSc2nnc(-c3ccccc3C)n2C)cc1 [4-methyl-3-(4-methylbenzylthio)-5-o-tolyl-4H-1,2,4-triazole] | AKT1

Results, then the compound that gave them:

Row | protein kinase against which the compound exhibits inhibitory activity (Table 3) | SMILES
49 | GSK3-β and GSK3-α and MSK1 | C(=C\c1ccccc1)/CSc1nnc(-c2ccncc2)n1-c1ccccc1 [(E)-4-(5-(cinnamylthio)-4-phenyl-4H-1,2,4-triazol-3-yl)pyridine]
50 | c-TAK1 | CN(C)CCCSc1nnc(-c2ccc([N+](=O)[O-])cc2)[nH]1 [N,N-dimethyl-3-(5-(4-nitrophenyl)-4H-1,2,4-triazol-3-ylthio)propan-1-amine]
